Data: US20250277012A1 (Protagonist Therapeutics, Inc., priority 2021, published 2025)
Read-outs that look alike come from different tables or passages of the source. Starred links: 1 amine or outer side, 2 acyl side, 3 side chain; linkers in the order of their positions; H or OH if unused. Positions of bridges follow the written chain, without caps; N, C: chain ends. Non-standard residues stand in square brackets, D forms with d. Residues, ends and D or L forms follow the SMILES beside them. Groups on a side chain read outwards from the residue. *: point of attachment. CH3O(CH2CH2O)11CH2CH2CO = COCCOCCOCCOCCOCCOCCOCCOCCOCCOCCOCCOCCC(=O)*; X1 = C[N+](C)(CCNC(=O)CCCCCCCCCCCCCCCCC(=O)O)CC(=O)*; X5 = CCCCCCCCCCCCCCCC(=O)NCC[N+](C)(C)CC(=O)*; C18 diacid = O=C(O)CCCCCCCCCCCCCCCCC(=O)*; Dip = N[C@H](C(=O)O)C(c1ccccc1)c1ccccc1; γGlu = O=C(O)[C@H](CCC(=O)[*:2])N[*:1]; Pro(3R-OH) = O=C(O)[C@H]1NCC[C@H]1O; Palmitoyl = CCCCCCCCCCCCCCCC(=O)*; NMeF = CN[C@@H](Cc1ccccc1)C(=O)O; 3Pal = N[C@@H](Cc1cccnc1)C(=O)O; NMeQ = CN[C@@H](CCC(N)=O)C(=O)O; β3hF = N[C@H](CC(=O)O)Cc1ccccc1; Aad = N[C@@H](CCCC(=O)O)C(=O)O; NMeK = CN[C@@H](CCCCN)C(=O)O; Isovaleryl = CC(C)CC(=O)*; NMeC = CN[C@@H](CS)C(=O)O; hCys = N[C@@H](CCS)C(=O)O; Dap = NC[C@H](N)C(=O)O; AEEA = NCCOCCOCC(=O)O; Ahx = NCCCCCC(=O)O

How the values were obtained:
ferroportin [1] = target: T1, ferroportin (Homo sapiens, UniProt Q9NP59); experiment: FPN activity assay: ferroportin-GFP internalization/degradation in HEK293 cells; type: cell-based; parameters: expressed in transfected cells; conditions: read-out: FPN IC50
T1 sequence (Q9NP59 1-571): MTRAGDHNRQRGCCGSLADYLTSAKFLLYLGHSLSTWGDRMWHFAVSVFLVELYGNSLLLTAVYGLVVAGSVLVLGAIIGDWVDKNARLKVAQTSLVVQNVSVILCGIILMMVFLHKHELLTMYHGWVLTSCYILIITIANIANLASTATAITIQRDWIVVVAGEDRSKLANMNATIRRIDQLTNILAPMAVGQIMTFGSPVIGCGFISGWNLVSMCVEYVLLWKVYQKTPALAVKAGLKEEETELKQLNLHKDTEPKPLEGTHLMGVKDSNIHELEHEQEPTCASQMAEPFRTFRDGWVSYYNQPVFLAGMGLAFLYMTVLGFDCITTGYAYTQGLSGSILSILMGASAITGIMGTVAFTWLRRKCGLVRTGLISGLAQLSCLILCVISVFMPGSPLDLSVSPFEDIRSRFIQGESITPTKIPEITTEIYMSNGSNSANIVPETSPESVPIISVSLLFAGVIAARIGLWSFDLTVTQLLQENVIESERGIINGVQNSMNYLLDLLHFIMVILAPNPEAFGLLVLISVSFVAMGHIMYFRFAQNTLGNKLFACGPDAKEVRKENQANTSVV
Method: Following internalization, the ferroporin protein is degraded.
A retro inverse peptide is a peptide with a reversed sequence in all D amino acids. An example is that Hy-Glu-Thr-His-NH2 becomes Hy-DHis-DThr-DGlu-NH2. The EC50 of these reference compounds for ferroportin internalization/degradation was determined according to the FPN activity assay described above. These peptides served as control standards.

ferroportin [2] = target: T1, ferroportin; experiment: T47D cell-based ferroportin internalization assay in presence of mouse serum albumin (MSA); parameters: a human breast carcinoma adherent cell line which endogenously expresses ferroportin; host or cells: T47D
How it was run: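 Peptide potency for inducing ferroportin internalization was measured in T47D cells in the presence of serum albumin. Cells grown in RPMI with fetal bovine serum were seeded in 96-well plates at 80-100 k cells per well in 100 ul and rested overnight. Dilution series of test peptides were preincubated 30 min at room temperature, then added to the cells after the medium was aspirated.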

[3] = ferroportin-GFP internalization/degradation, HEK293 cells, Table 6E
[4] = T47D internalization assay in presence of mouse serum albumin (MSA), Table 6E
[5] = Table 6E, T47D internalization assay with MSA

SMILES | DC50 (ferroportin [1]; [3]) [nM] | IC50 (ferroportin [2]; [4]) [nM] | IC50 (ferroportin [2]; [5]) [nM] | also measured
CC[C@H](C)[C@H](NC(=O)[C@@H]1CSSC[C@H](NC(=O)[C@@H](NC(=O)[C@H](Cc2c[nH]cn2)NC(=O)[C@@H](NC(=O)[C@H](CCC(=O)O)NC(=O)CC(C)C)[C@@H](C)O)C(c2ccccc2)c2ccccc2)C(=O)N1)C(=O)N[C@@H](CCCCNC(=O)COCCOCCNC(=O)COCCOCCNC(=O)CC[C@H](NC(=O)CCCCCCCCCCCCCCCCC(=O)O)C(=O)O)C(=O)N[C@H](CC(=O)N[C@H](CCCCN)C(N)=O)Cc1ccccc1 [Compd 30] (Isovaleryl-ETH[Dip]CCIK([AEEA-AEEA-γGlu-C18 diacid])[β3hF][dK]-NH2; disulfide 5-6) | – | – | – | DC50 (ferroportin [1]; ferroportin-GFP HEK293 cells, at least 18 hours): 10 to 100 nM; IC50 (ferroportin [2]; T47D cells, 0.5% mouse serum albumin, 1 hr incubation): 10 to 100 nM
CC(C)CC(=O)N[C@@H](CCC(=O)O)C(=O)N[C@H](C(=O)N[C@@H](Cc1c[nH]cn1)C(=O)N[C@H](C(=O)N1CCC[C@H]1C(=O)N[C@H]1CSSC[C@@H](C(=O)N(C)[C@@H](CCCCNC(=O)COCCOCCNC(=O)COCCOCCNC(=O)[C@H](CN)NC(=O)CCCCCCCCCCCCCCCCC(=O)O)C(=O)N[C@H](CC(=O)N[C@H](CCCCN)C(N)=O)Cc2ccccc2)NC1=O)C(c1ccccc1)c1ccccc1)[C@@H](C)O [compound 306] (Isovaleryl-ETH[Dip]PCC[NMeK]([AEEA-AEEA-Dap-C18 diacid])[β3hF][dK]-NH2; disulfide 6-7) | 10 to 100 | 10 to 100 | – | –
CC(C)CC(=O)N[C@@H](CCC(=O)O)C(=O)N[C@H](C(=O)N[C@@H](Cc1c[nH]cn1)C(=O)N[C@H](C(=O)N1CCC[C@H]1C(=O)N[C@H]1CCSSCC[C@@H](C(=O)N(C)[C@@H](CCCCNC(=O)COCCOCCNC(=O)COCCOCCNC(=O)[C@H](CN)NC(=O)CCCCCCCCCCCCCCCCC(=O)O)C(=O)N[C@H](CC(=O)N[C@H](CCCCN)C(N)=O)Cc2ccccc2)NC1=O)C(c1ccccc1)c1ccccc1)[C@@H](C)O [compound 269] (Isovaleryl-ETH[Dip]P[hCys][hCys][NMeK]([AEEA-AEEA-Dap-C18 diacid])[β3hF][dK]-NH2; disulfide 6-7) | 10 to 100 | 10 to 100 | – | –
COC(=O)CC[C@H](NC(=O)CC(C)C)C(=O)N[C@H](C(=O)N[C@@H](Cc1c[nH]cn1)C(=O)N[C@H](C(=O)N1CCC[C@H]1C(=O)N[C@H]1CSSC[C@@H](C(=O)N[C@@H](CCCCNC(=O)CCCCCNC(=O)C[N+](C)(C)CCNC(=O)CCCCCCCCCCCCCCCCC(=O)O)C(=O)N[C@H](CC(=O)N[C@H](CCCCN)C(N)=O)Cc2ccccc2)NC1=O)C(c1ccccc1)c1ccccc1)[C@@H](C)O [compound 311] (Isovaleryl-E(OMe)TH[Dip]PCCK([Ahx-X1])[β3hF][dK]-NH2; disulfide 6-7) | 10 to 100 | 10 to 100 | – | –
CC(C)CC(=O)N[C@@H](CCCC(=O)O)C(=O)N[C@H](C(=O)N[C@@H](Cc1cccnc1)C(=O)N[C@H](C(=O)N1CCC[C@H]1C(=O)N[C@H]1CSSC[C@@H](C(=O)N(C)[C@@H](CCCCNC(=O)COCCOCCNC(=O)COCCOCCNC(=O)[C@H](CN)NC(=O)CCCCCCCCCCCCCCCCC(=O)O)C(=O)N[C@H](C(=O)N[C@H](CCCCN)C(N)=O)C(c2ccccc2)c2ccccc2)NC1=O)C(c1ccccc1)c1ccccc1)[C@@H](C)O [compound 242] (Isovaleryl-[Aad]T[3Pal][Dip]PCC[NMeK]([AEEA-AEEA-Dap-C18 diacid])[Dip][dK]-NH2; disulfide 6-7) | 10 to 100 | 10 to 100 | – | –
CCCCCCCCCCCCCCCC(=O)N[C@@H](CCC(=O)NCCCC[C@@H](C(=O)N[C@H](CC(=O)N[C@H](CCCCN)C(N)=O)Cc1ccccc1)N(C)C(=O)[C@@H]1CSSC[C@H](NC(=O)[C@@H]2CCCN2C(=O)[C@@H](NC(=O)[C@H](Cc2cnc[nH]2)NC(=O)[C@@H](NC(=O)[C@H](CCC(=O)O)NC(=O)CC(C)C)[C@@H](C)O)C(c2ccccc2)c2ccccc2)C(=O)N1)C(=O)O [compound 223] (Isovaleryl-ETH[Dip]PCC[NMeK]([γGlu-Palmitoyl])[β3hF][dK]-NH2; disulfide 6-7) | – | – | 1 to 10 | –
CC(C)CC(=O)N[C@H]1CCC(=O)NCCCC[C@H](C(N)=O)NC(=O)[C@H](C(c2ccccc2)c2ccccc2)NC(=O)[C@H](CCCCNC(=O)CCCCCNC(=O)C[N+](C)(C)CCNC(=O)CCCCCCCCCCCCCCCCC(=O)O)N(C)C(=O)[C@@H]2CSSC[C@H](NC(=O)[C@@H]3CCCN3C(=O)[C@H](C(c3ccccc3)c3ccccc3)NC(=O)[C@H](Cc3cnc[nH]3)NC(=O)[C@H]([C@@H](C)O)NC1=O)C(=O)N2 [compound 193] (Isovaleryl-ETH[Dip]PCC[NMeK]([Ahx-X1])[Dip][dK]-NH2; lactam 1-10; disulfide 6-7) | – | – | 10 to 100 | –
CCCCCCCCCCCCCCCC(=O)NCC[N+](C)(C)CC(=O)NCCCC[C@@H](C(=O)N[C@H](C(=O)N[C@H](CCCCN)C(N)=O)C(c1ccccc1)c1ccccc1)N(C)C(=O)[C@@H]1CSSC[C@H](NC(=O)[C@@H]2CCCN2C(=O)[C@@H](NC(=O)[C@H](Cc2c[nH]cn2)NC(=O)[C@@H]2[C@H](O)CCN2C(=O)[C@H](CCC(=O)OC)NC(=O)CC(C)C)C(c2ccccc2)c2ccccc2)C(=O)N1 [compound 151] (Isovaleryl-E(OMe)[Pro(3R-OH)]H[Dip]PCC[NMeK](X5)[Dip][dK]-NH2; disulfide 6-7) | – | – | 1 to 10 | –
CC(C)CC(=O)N[C@@H](CCC(=O)O)C(=O)N[C@H](C(=O)N[C@@H](Cc1cnc[nH]1)C(=O)N[C@H](C(=O)N1CCC[C@H]1C(=O)N[C@H]1CSSC[C@@H](C(=O)N(C)[C@@H](CCCCNC(=O)CCCCCNC(=O)C[N+](C)(C)CCNC(=O)CCCCCCCCCCCCCCCCC(=O)O)C(=O)N[C@H](C(=O)N[C@H](CCCCN)C(N)=O)C(c2ccccc2)c2ccccc2)NC1=O)C(c1ccccc1)c1ccccc1)[C@@H](C)O [compound 198] (Isovaleryl-ETH[Dip]PCC[NMeK]([Ahx-X1])[Dip][dK]-NH2; disulfide 6-7) | – | – | 10 to 100 | –
CC(C)CC(=O)N[C@@H](CCC(=O)O)C(=O)N[C@H](C(=O)N[C@@H](Cc1c[nH]cn1)C(=O)N[C@H](C(=O)N1CCC[C@H]1C(=O)N[C@H]1CSSC[C@@H](C(=O)N(C)[C@@H](CCCCNC(=O)COCCOCCNC(=O)COCCOCCNC(=O)[C@H](CN)NC(=O)CCCCCCCCCCCCCCCCC(=O)O)C(=O)N[C@H](CC(=O)N[C@H](CCCCN)C(=O)N(C)[C@@H](CCC(N)=O)C(N)=O)Cc2ccccc2)NC1=O)C(c1ccccc1)c1ccccc1)[C@@H](C)O [compound 251] (Isovaleryl-ETH[Dip]PCC[NMeK]([AEEA-AEEA-Dap-C18 diacid])[β3hF][dK][NMeQ]-NH2; disulfide 6-7) | – | 10 to 100 | – | –
CCCCCCCCCCCCCCCC(=O)NCC[N+](C)(C)CC(=O)NCCCC[C@@H](C(=O)N[C@H](C(=O)N[C@H](CCCCN)C(N)=O)C(c1ccccc1)c1ccccc1)N(C)C(=O)[C@@H]1CSSC[C@H](NC(=O)[C@@H]2CCCN2C(=O)[C@@H](NC(=O)[C@H](Cc2cnc[nH]2)NC(=O)[C@@H](NC(=O)[C@H](CCC(=O)OC)NC(=O)CC(C)C)[C@@H](C)O)C(c2ccccc2)c2ccccc2)C(=O)N1 [compound 175] (Isovaleryl-E(OMe)TH[Dip]PCC[NMeK](X5)[Dip][dK]-NH2; disulfide 6-7) | – | – | 1 to 10 | –
COCCOCCOCCOCCOCCOCCOCCOCCOCCOCCOCCOCCC(=O)NCCCC[C@@H](NC(=O)[C@@H](NC(=O)[C@H](CCCCNC(=O)COCCOCCNC(=O)COCCOCCNC(=O)C[N+](C)(C)CCNC(=O)CCCCCCCCCCCCCCCCC(=O)O)NC(=O)[C@@H]1CSSC[C@H](NC(=O)[C@@H]2CCCN2C(=O)[C@@H](NC(=O)[C@H](Cc2c[nH]cn2)NC(=O)[C@@H](NC(=O)[C@H](CCC(=O)O)NC(=O)CC(C)C)[C@@H](C)O)C(c2ccccc2)c2ccccc2)C(=O)N1)C(c1ccccc1)c1ccccc1)C(N)=O [compound 203] (Isovaleryl-ETH[Dip]PCCK([AEEA-AEEA-X1])[Dip][dK](CH3O(CH2CH2O)11CH2CH2CO)-NH2; disulfide 6-7) | – | – | 10 to 100 | –
CC(C)CC(=O)N[C@@H](CCC(=O)O)C(=O)N[C@H](C(=O)N[C@@H](Cc1c[nH]cn1)C(=O)N[C@H](C(=O)N1CCC[C@H]1C(=O)N[C@H]1CSSC[C@@H](C(=O)N(C)[C@@H](CCCCNC(=O)COCCOCCNC(=O)COCCOCCNC(=O)[C@H](CN)NC(=O)CCCCCCCCCCCCCCCCC(=O)O)C(=O)N(C)[C@@H](Cc2ccccc2)C(=O)N[C@H](CCCCN)C(N)=O)N(C)C1=O)C(c1ccccc1)c1ccccc1)[C@@H](C)O [compound 266] (Isovaleryl-ETH[Dip]PC[NMeC][NMeK]([AEEA-AEEA-Dap-C18 diacid])[NMeF][dK]-NH2; disulfide 6-7) | – | 10 to 100 | – | –
